Experimental data taken from patent publication US8026342B2, “Compositions and methods for binding sphingosine-1-phosphate” (Lpath, Inc., priority 2006, dated 2011).

B1: LT1002: murine anti-S1P monoclonal antibody, IgG1 kappa, from hybridoma clone 306D326.26 (antibody, listed as Mus sp., V domains shown)
VH: QAHLQQSDAELVKPGASVKISCKVSGFIFIDHTIHWMKQRPEQGLEWIGCISPRHDITKYNEMFRGKATLTADKSSTTAYIQVNSLTFEDSAVYFCARGGFYGSTIWFDFWGQGTTLTVS
VL: ETTVTQSPASLSMAIGEKVTIRCITTTDIDDDMNWFQQKPGEPPNLLISEGNILRPGVPSRFSSSGYGTDFLFTIENMLSEDVADYYCLQSDNLPFTFGSGTKLEIK

Columns and labels:
CNV lesions [1] = assay: CNV animal model of AMD, murine vs humanized mAbs (Example 17); type: in vivo, mice; details: for Percent inhibition of lesion size: 14 days post laser
Description: The humanized antibody variants and the murine antibody were compared for their ability to inhibit neo-vascularization in the CNV animal model of AMD as shown in FIG. 13. […] Mice were sacrificed 14 days post laser surgery. Control mice were treated with aqueous buffer (PBS) or an isotype-matched non-specific antibody. Three of the humanized variants inhibited angiogenesis essentially equivalently to the murine antibody as assessed by measurement of CNV area. CNV lesion volumes are represented as means±SEM.
For the induction of CNV, mice were anesthetized with a mixture of ketamine (14 mg/kg) and xylazine (30 mg/kg) in sterile saline administered intraperitoneally at a dose of 5 μL per 20 g of body weight. Their pupils were then dilated with one drop each of ophthalmic tropicamide (0.5%) and phenylephrine (2.5%). An argon green ophthalmic laser (Oculight GL 532 nm, Iridex Corporation, Mountain View, Calif.) coupled to a slit lamp set to deliver a 100 msec pulse at 150 mW with a 50 μm spot size will then be used to rupture Bruch's membrane in three quadrants of the right eye located approximately 50 μm from the optic disc at relative 9, 12 and 3 o'clock positions. The left eye served as uninjured control in all cases.
The morphometric and volumetric CNV lesions were measured as follows. Two weeks after laser induction of CNV, the animals were euthanized by overdose of ketamine-xylazine mixture, then undergo whole body perfusion via cardiac puncture with 6 ml 4% paraformaldehyde in PBS, pH 7.5, (fixative) as previously described (Sengupta et al., 2003). The eyes will then be enucleated, punctured with a 27 g needle 1 mm posterior to the limbus, and immersed in fixative for 1 hr at room temperature, then washed 2× by immersion in PBS for 30 min. The eyes will then be dissected to isolate the posterior segment consisting of the retinal pigment epithelium, the choriocapillaris and the sclera. This tissue was then permeabilized and reacted with rhodamine-conjugated R. communis agglutinin I (Vector Laboratories, Burlingame, Calif.) to detect the CNV lesion as previously described (Sengupta et al., 2003; Sengupta et al., 2005). […]
Captured digital images were evaluated morphometrically using ImageJ software (Research Services Branch, National Institutes of Health, Bethesda, Md.). Images were split into separate RGB channels for analysis of the red and green channels as follows: 1) a calibration for the specific objective and microscope was applied to set the pixel-to-length ratio; 2) a threshold was applied using the Otsu algorithm; 3) images will be made binary; 4) a region-of-interest (ROI) was outlined to include the entire lesion area; 5) a particle analysis was performed to quantify the pixel area above the threshold level within the ROI. […]

CNV lesions [2] = assay: Sonepcizumab dose response in laser CNV model (fluorescein-labeled dextran); type: in vivo, mice
Description: Mice (n=10) received a single, bilateral intravitreal injection of escalating doses of sonepcizumab (0.085, 0.85, 1.7 or 5 μg/eye) or a high dose nonspecific (NS) antibody (3.0 μg/eye) one day prior to laser-induced rupture of Bruch's membrane. Fourteen days after laser rupture, mice were anesthetized and perfused with fluorescein-labeled dextran and choroidal flatmounts were prepared for analysis of CNV lesion size.
In this study, the effect of sonepcizumab dose amount and dose interval on CNV inhibition were examined using another validated method of quantifying CNV area in which animals were perfused with fluorescein-labeled dextran just before sacrifice. Sonepcizumab induced a dose-dependent reduction in the area of CNV resulting in a maximal inhibition of approximately 50%, at a dose of 5 μg/eye. This reduction was significant (p<0.0001 compared to non-specific antibody control using an unpaired t-test). In the dosing frequency study, similar efficacy was observed between groups treated with Sonepcizumab at a single timepoint (day 0) or at multiple timepoints (days 0 and 7) over the 14-day study.

HT29 tumor = assay: SC HT29 colorectal tumor xenograft; type: in vivo, athymic NCr-nu/nu mice; details: LT1009 50 mg/kg ip q2d; Avastin 20 mg/kg iv q4d; 5-FU 75 mg/kg ip q4d
Description: Nude mice were implanted sc near the right flank with one fragment per mouse of HT29 tumor from an in vivo passage. All treatments were initiated the day when 60 mice in each experiment established tumors ranging in size from approximately 100 to 200 mm^3. There were ten mice per treatment group. […] 75 mg/kg 5-FU and 20 mg/kg Avastin were administered ip and iv at a dosage of 75 mg/kg/dose and 20 mg/kg/dose, respectively, q4d, injected in a volume of 0.1 mL/10 g body weight.
Animals were observed daily for mortality. Tumor dimensions and body weights were collected twice weekly starting with the first day of treatment and including the day of study termination. When the median tumor in the vehicle-treated control group in each study reached approximately 4,000 mg, the study was terminated. Tumors from each animal were harvested, wet weights were recorded, and tumors were processed for determination of MVD by CD-31 staining. Tumor weights (mg) were calculated using the equation for an ellipsoid sphere (l×w^2)/2=mm^3, where l and w refer to the larger and smaller dimensions collected at each measurement and assuming unit density (1 mm^3=1 mg).

[3] = Circular dichroism thermal denaturation of LT1009; type: physicochemical
Description: Circular dichroism spectroscopy was performed separately from the formulation studies. An Aviv 202 CD spectrophotometer was used to perform these analyses. Near UV CD spectra were collected from 400 nm to 250 nm. In this region, the disulfides and aromatic side chains contribute to the CD signals. In the far UV wavelength region (250-190 nm), the spectra are dominated by the peptide backbone. Thermal denaturation curves were generated by monitoring at 205 nm, a wavelength commonly used for b-sheet proteins. Data was collected using 0.1 mg/ml samples with heating from 25° C. to 85° C. Data were collected in 1° C. increments. The total time for such a denaturation scan was between 70 and 90 minutes. The averaging time was 2 seconds.

HUVECs = assay: HUVEC tube formation on GF-reduced Matrigel; type: cell-based, human; details: co-incubated with S1P
Description: FIG. 5 has two panels, A and B. In panel A, S1P is shown to promote neovascularization through induction of HUVECs tube formation and migration, which is reduced by SPHINGOMAB. […] The number of cells that migrated to the Matrigel membrane were counted in five independent fields.
Experiments were performed as described by Visentin et al. (Cancer Cell 2006 March; 9(3):225-38).

[4] = 0.5 ug intravitreal, Day 0 and Day 6

Row | Molecule | inhibition of neovascularization (CNV area/volume), qualitative (CNV lesions [1]; [4]) | Percent inhibition of lesion size (CNV lesions [1]; [4]) | inhibition compared to non-specific antibody control (CNV lesions [1]; p<0.05) | maximal inhibition of CNV area (CNV lesions [2]; 5 μg/eye single intravitreal, 14 days) | reduction in CNV lesion size greater than that observed with the VEGF-Trap (CNV lesions [2]; comparison of two independent studies, VEGF-Trap 4.92 μg/eye (Saishin et al.)) [percentage points] | % Reduction compared to Vehicle-Treated Mice (HT29 tumor) [%] | Final Tumor Weights (HT29 tumor) [mg] | apparent Tm ([3]; pH 6.0) | apparent Tm ([3]; pH 7.2) | formation of capillary-like structures (HUVECs)
1 | LT1009: humanized anti-S1P IgG1/kappa mAb with Cys to Ala in HCDR2, light chain with 5 backmutations; SEQ ID NO: 31/32 | markedly suppressed neovascularization | ~99% | significant inhibition | approximately 50% | 20 | 13 | 2390.63 | about 77 °C | approximately 73 °C | 
2 | B1 |  | approximately 80% |  |  |  |  |  |  |  | failed to form capillary-like structures
